Measurements from patent US20130065818A1, “Arylamide Compounds And Compositions And Uses Thereof” (POLYMEDIX, priority 2006, published 2013).
Values after ≈ are worked out from the molar mass of the structure shown. Like-named read-outs stand apart in the source and are kept apart here.

Legend:
[1] = test system: Staphylococcus epidermidis (Coagulase-negative Staphylococcus) fluoroquinolone-resistant; test: MIC, 25 ocular isolates, broth microdilution (Example 8); type: cell-based
Description: (§1) • Mueller-Hinton Broth in tubes was inoculated with 25 ocular isolates of Staphylococcus aureus fluoroquinolone-susceptible, Staphylococcus aureus fluoroquinolone-resistant, Staphylococcus epidermidis (Coagulase-negative Staphylococcus) fluoroquinolone-susceptible, Staphylococcus epidermidis (Coagulase-negative Staphylococcus) fluoroquinolone-resistant, Pseudomonas aeruginosa and Serratia marcescens, plus two controls (Staphylococcus aureus and E. coli) and incubated at 37° C. overnight on a shaker set at 250 rpm.
(§2) On the day of testing, a 640 μg/ml (1280 μg/ml for Serratia marcescens and Pseudomonas aeruginosa) concentration was prepared from a 1% stock solution in 0.01% acetic acid, 0.2% BSA in polypropylene tubes.
(§3) Serial doubling dilutions in 0.01% acetic acid, 0.2% BSA in 96 well polypropylene plates, which are used as reservoirs for the inoculation of the test plates, were carried out to obtain serial dilutions of test agents at 10 times the required test concentrations: 640, 320, 160, 80, 40, 20, 10, 5, 2.5, 1.25, and 0.625 μg/ml (1280, 640, 320, 160, 80, 40, 20, 10, 5, 2.5, and 1.25 μg/ml for Serratia marcescens and Pseudomonas aeruginosa).
(§4) Ten μl of diluted 10×test agents was added to each well of one row of the 96 well polypropylene plates from column 2 to column 12 (column 1 is a control for bacteria alone, with no peptide). Test agent concentrations in columns 2-12 were as follows: 64, 32, 16, 8, 4, 2, 1, 0.5, 0.25, 0.125, and 0.0625 μg/ml (128, 64, 32, 16, 8, 4, 2, 1, 0.5, 0.25, and 0.125 μg/ml for Serratia marcescens and Pseudomonas aeruginosa). The same peptide was in each of the 8 rows. One plate contained dilutions of one test agent and 8 bacterial isolates.
(§5) On the day of testing, the overnight bacterial broth cultures of Staphylococcus aureus fluoroquinolone-susceptible, Staphylococcus aureus fluoroquinolone-resistant, Staphylococcus epidermidis (Coagulase-negative Staphylococcus) fluoroquinolone-susceptible, Staphylococcus epidermidis (Coagulase-negative Staphylococcus) fluoroquinolone-resistant, Serratia marcescens, and Pseudomonas aeruginosa, plus two controls (Staphylococcus aureus and E. coli) were diluted in 5 ml of trypticase soy broth to yield turbidity equal to a 0.5 McFarland standard. The final inoculum for MIC testing for Staphylococcus aureus fluoroquinolone-susceptible, Staphylococcus aureus fluoroquinolone-resistant, Staphylococcus epidermidis (Coagulase-negative Staphylococcus) fluoroquinolone-susceptible, Staphylococcus epidermidis (Coagulase-negative Staphylococcus) fluoroquinolone-resistant, Serratia marcescens, and Pseudomonas aeruginosa was achieved by placing 0.05 ml of the turbidity adjusted sample to 5 ml of Mueller-Hinton broth.
(§6) Ninety μl of the bacterial suspensions was dispensed in each well from column 1 to column 12. Each bacterial isolate was placed in one row of a 96 well polypropylene plate containing the test agents. The plates were placed on shaker at 15 minutes at room temperature, and then incubated at 37° C. overnight. MICs were determined visually as the lowest concentration of drug that inhibits visible bacterial growth.

[2] = test system: Staphylococcus aureus fluoroquinolone-resistant; test: as above; type: cell-based
Description: as §1, §2, §3, §4, §5, §6

Work on `N=C(N)NCCCCC(=O)Nc1cc(C(F)(F)F)cc(NC(=O)c2cc(C(=O)Nc3cc(C(F)(F)F)cc(NC(=O)CCCCNC(=N)N)c3O[C@@H]3CCNC3)ncn2)c1O[C@@H]1CCNC1` [Oligomer 4] yielded an MIC, sorted list for MIC50 and MIC90 Determinations (QRSE-A) ([1]; 25 isolates sorted ascending, Row 1-25, <0.0625 was Replaced with 0.03125) of 0.25 µg/mL, an MIC50 ([1]; 25 isolates, Row 13) of 0.125 µg/mL (≈ 0.133 µM) and an MIC90 ([1]; 25 isolates, Row 22) of 0.25 µg/mL (≈ 0.267 µM). The “Range of MICs” value ([1]; 25 isolates, Summary of Results, <0.0625 was Replaced with 0.03125) was 0.03125 to 0.25 µg/mL, the MIC ([1]; Staphylococcus epidermidis, 25 ocular isolates, read-out: Median MIC) was at most 0.25 µg/mL and the MIC ([1]; Staphylococcus epidermidis, isolate 1—E515, read-out: MIC) was 0.125 µg/mL (≈ 0.133 µM). For the same compound, the MIC ([1]; Staphylococcus epidermidis, isolate 2—E514, read-out: MIC) was under 0.0625 µg/mL, the MIC ([1]; Staphylococcus epidermidis, isolate 3—E513, read-out: MIC) was 0.125 µg/mL (≈ 0.133 µM) and the MIC ([1]; Staphylococcus epidermidis, isolate 4—E510, read-out: MIC) was under 0.0625 µg/mL. For the same compound, the MIC ([1]; Staphylococcus epidermidis, isolate 5—E509, read-out: MIC) was 0.125 µg/mL (≈ 0.133 µM), the MIC ([1]; Staphylococcus epidermidis, isolate 6—E508, read-out: MIC) was 0.125 µg/mL (≈ 0.133 µM) and the MIC ([1]; Staphylococcus epidermidis, isolate 7—E505, read-out: MIC) was 0.125 µg/mL (≈ 0.133 µM). The MIC ([1]; Staphylococcus epidermidis, isolate 8—E503, read-out: MIC) was 0.125 µg/mL (≈ 0.133 µM), the MIC ([1]; Staphylococcus epidermidis, isolate 9—E502, read-out: MIC) was 0.125 µg/mL (≈ 0.133 µM) and the MIC ([1]; Staphylococcus epidermidis, isolate 10—E499, read-out: MIC) was 0.125 µg/mL (≈ 0.133 µM). For the same compound, the MIC ([1]; Staphylococcus epidermidis, isolate 11—E498, read-out: MIC) was 0.125 µg/mL (≈ 0.133 µM), the MIC ([1]; Staphylococcus epidermidis, isolate 12—E494, read-out: MIC) was under 0.0625 µg/mL and the MIC ([1]; Staphylococcus epidermidis, isolate 13—E493, read-out: MIC) was 0.125 µg/mL (≈ 0.133 µM). It also gave an MIC ([1]; Staphylococcus epidermidis, isolate 14—E485, read-out: MIC) of 0.125 µg/mL (≈ 0.133 µM), an MIC ([1]; Staphylococcus epidermidis, isolate 15—E487, read-out: MIC) of 0.125 µg/mL (≈ 0.133 µM) and an MIC ([1]; Staphylococcus epidermidis, isolate 16—E486, read-out: MIC) of under 0.0625 µg/mL. It also gave an MIC ([1]; Staphylococcus epidermidis, isolate 17—E480, read-out: MIC) of 0.125 µg/mL (≈ 0.133 µM), an MIC ([1]; Staphylococcus epidermidis, isolate 18—E475, read-out: MIC) of 0.25 µg/mL (≈ 0.267 µM) and an MIC ([1]; Staphylococcus epidermidis, isolate 19—E471, read-out: MIC) of 0.125 µg/mL (≈ 0.133 µM). It also gave an MIC ([1]; Staphylococcus epidermidis, isolate 20—E458, read-out: MIC) of 0.125 µg/mL (≈ 0.133 µM), an MIC ([1]; Staphylococcus epidermidis, isolate 21—E452, read-out: MIC) of 0.25 µg/mL (≈ 0.267 µM) and an MIC ([1]; Staphylococcus epidermidis, isolate 22—E450, read-out: MIC) of 0.125 µg/mL (≈ 0.133 µM). The MIC ([1]; Staphylococcus epidermidis, isolate 23—E440, read-out: MIC) was 0.25 µg/mL (≈ 0.267 µM), the MIC ([1]; Staphylococcus epidermidis, isolate 24—E446, read-out: MIC) was 0.125 µg/mL (≈ 0.133 µM) and the MIC ([1]; Staphylococcus epidermidis, isolate 25—E444, read-out: MIC) was 0.25 µg/mL (≈ 0.267 µM). The MIC ([1]; Staphylococcus epidermidis, n=25 per group, read-out: Median MIC) was 0.125 µg/mL (≈ 0.133 µM), the MIC50 ([1]; Staphylococcus epidermidis, 25 isolates, Summary of Results, read-out: MIC50) was 0.125 µg/mL (≈ 0.133 µM) and the MIC90 ([1]; Staphylococcus epidermidis, 25 isolates, Summary of Results, read-out: MIC90) was 0.25 µg/mL (≈ 0.267 µM). The MIC ([1]; Staphylococcus epidermidis, 25 isolates, Summary of Results, read-out: Median MIC) was 0.125 µg/mL (≈ 0.133 µM), the MIC50 ([1]; n=25 per group) was 0.125 µg/mL (≈ 0.133 µM) and the MIC90 ([1]; n=25 per group) was 0.25 µg/mL (≈ 0.267 µM). For the same compound, the “Range of MICs” value ([1]; n=25 per group) was 0.03125 to 0.25 µg/mL, the MIC50 ([2]; 25 isolates, Row 13) was 0.25 µg/mL (≈ 0.267 µM) and the MIC90 ([2]; 25 isolates, Row 22) was 0.5 µg/mL (≈ 0.534 µM). For the same compound, the “Range of MICs” value ([2]; 25 isolates, Summary of Results) was 0.125 to 1.0 µg/mL, the MIC ([2]; Staphylococcus aureus, 25 ocular isolates, read-out: Median MIC) was at most 0.25 µg/mL and the MIC ([2]; Staphylococcus aureus, isolate 1—E504, read-out: MIC) was 0.25 µg/mL (≈ 0.267 µM). For the same compound, the MIC ([2]; Staphylococcus aureus, isolate 2—E475, read-out: MIC) was 0.25 µg/mL (≈ 0.267 µM), the MIC ([2]; Staphylococcus aureus, isolate 3—E442, read-out: MIC) was 0.25 µg/mL (≈ 0.267 µM) and the MIC ([2]; Staphylococcus aureus, isolate 4—E427, read-out: MIC) was 0.5 µg/mL (≈ 0.534 µM). It also gave an MIC ([2]; Staphylococcus aureus, isolate 5—E425, read-out: MIC) of 0.25 µg/mL (≈ 0.267 µM), an MIC ([2]; Staphylococcus aureus, isolate 6—E424, read-out: MIC) of 0.25 µg/mL (≈ 0.267 µM) and an MIC ([2]; Staphylococcus aureus, isolate 7—E417, read-out: MIC) of 1 µg/mL (≈ 1.07 µM). It also gave an MIC ([2]; Staphylococcus aureus, isolate 8—E407, read-out: MIC) of 0.25 µg/mL (≈ 0.267 µM), an MIC ([2]; Staphylococcus aureus, isolate 9—E401, read-out: MIC) of 0.25 µg/mL (≈ 0.267 µM) and an MIC ([2]; Staphylococcus aureus, isolate 10—K1659, read-out: MIC) of 0.25 µg/mL (≈ 0.267 µM). For the same compound, the MIC ([2]; Staphylococcus aureus, isolate 11—E96, read-out: MIC) was 0.125 µg/mL (≈ 0.133 µM), the MIC ([2]; Staphylococcus aureus, isolate 12—E379, read-out: MIC) was 0.5 µg/mL (≈ 0.534 µM) and the MIC ([2]; Staphylococcus aureus, isolate 13—E369, read-out: MIC) was 0.125 µg/mL (≈ 0.133 µM). It also gave an MIC ([2]; Staphylococcus aureus, isolate 14—E361, read-out: MIC) of 0.25 µg/mL (≈ 0.267 µM), an MIC ([2]; Staphylococcus aureus, isolate 15—E339, read-out: MIC) of 0.25 µg/mL (≈ 0.267 µM) and an MIC ([2]; Staphylococcus aureus, isolate 16—E333, read-out: MIC) of 0.25 µg/mL (≈ 0.267 µM). The MIC ([2]; Staphylococcus aureus, isolate 17—E332, read-out: MIC) was 0.25 µg/mL (≈ 0.267 µM), the MIC ([2]; Staphylococcus aureus, isolate 18—E327, read-out: MIC) was 0.5 µg/mL (≈ 0.534 µM) and the MIC ([2]; Staphylococcus aureus, isolate 19—E325, read-out: MIC) was 0.5 µg/mL (≈ 0.534 µM). The MIC ([2]; Staphylococcus aureus, isolate 20—K950, read-out: MIC) was 0.5 µg/mL (≈ 0.534 µM), the MIC ([2]; Staphylococcus aureus, isolate 21—K839, read-out: MIC) was 0.25 µg/mL (≈ 0.267 µM) and the MIC ([2]; Staphylococcus aureus, isolate 22—K1679, read-out: MIC) was 0.25 µg/mL (≈ 0.267 µM). For the same compound, the MIC ([2]; Staphylococcus aureus, isolate 23—K1677, read-out: MIC) was 0.25 µg/mL (≈ 0.267 µM), the MIC ([2]; Staphylococcus aureus, isolate 24—K1672, read-out: MIC) was 0.25 µg/mL (≈ 0.267 µM) and the MIC ([2]; Staphylococcus aureus, isolate 25—K1670, read-out: MIC) was 0.25 µg/mL (≈ 0.267 µM). For the same compound, the MIC ([2]; Staphylococcus aureus, n=25 per group, read-out: Median MIC) was 0.25 µg/mL (≈ 0.267 µM), the MIC50 ([2]; Staphylococcus aureus, 25 isolates, Summary of Results, read-out: MIC50) was 0.25 µg/mL (≈ 0.267 µM) and the MIC90 ([2]; Staphylococcus aureus, 25 isolates, Summary of Results, read-out: MIC90) was 0.5 µg/mL (≈ 0.534 µM). The MIC ([2]; Staphylococcus aureus, 25 isolates, Summary of Results, read-out: Median MIC) was 0.25 µg/mL (≈ 0.267 µM), the MIC50 ([2]; n=25 per group) was 0.25 µg/mL (≈ 0.267 µM) and the MIC90 ([2]; n=25 per group) was 0.5 µg/mL (≈ 0.534 µM). For the same compound, the “Range of MICs” value ([2]; n=25 per group) was 0.125 to 1.0 µg/mL.
